According to patent US5202309A, “Antibiotic cyclopeptide fermentation product” (Merck & Co., Inc., priority 1991, dated 1993):
Numbered stars: 1 amine (or outer) side, 2 acyl side, 3 side chain; on linkers, the order of the positions; unused ones are H or OH. Bridge positions count the residues as written; N and C are the ends. Square brackets hold non-standard residues; d marks the D form. Peptide text beside a SMILES is read from it. * marks the point of attachment. Orn(4R-OH,5R-OH) = O=C([C@H](C[C@@H](O)[C@@H](O)N[*:3])N[*:1])[*:2]; Tetradecanoyl(10R,12S-Me2) = CC[C@H](C)C[C@H](C)CCCCCCCCC(=O)*; hTyr(3S-OH,4S-OH) = N[C@H](C(=O)O)[C@H](O)[C@@H](O)c1ccc(O)cc1; Gln(3R-OH) = NC(=O)C[C@@H](O)[C@H](N)C(=O)O; Pro(3S-OH) = O=C(O)[C@H]1NCC[C@@H]1O; Hyp = O=C(O)[C@@H]1C[C@@H](O)CN1

What was measured:
Candida parapsilosis = assay: Microbroth dilution assay in YNBD, minimum fungicidal concentration; assay type: cell-based; settings: Candida parapsilosis MY 1010, 35° C. 24 hours, then Sabouraud dextrose agar 24 hours at 28° C.
Procedure: (§1) The compounds were further diluted to 256 μg/ml in YNBD. […] After incubation, each culture was diluted in sterile water to yield a final concentration of 1-5×10^6 colony forming units (CFU)/ml.

Candida albicans = assay: as above; assay type: cell-based; settings: then Sabouraud dextrose agar 24 hours at 28° C.
Procedure: as §1

In the case of `CC[C@H](C)C[C@H](C)CCCCCCCCC(=O)N[C@H]1C[C@@H](O)[C@@H](O)NC(=O)[C@@H]2[C@@H](O)CCN2C(=O)[C@H]([C@H](O)CC(N)=O)NC(=O)[C@H]([C@H](O)[C@@H](O)c2ccc(O)cc2)NC(=O)[C@@H]2C[C@@H](O)CN2C(=O)[C@H]([C@@H](C)O)NC1=O` [Compound I, 1-[4,5-dihydroxy-N^2-(10,12-dimethyl-1-oxotetradecyl)ornithine]-5-(3-hydroxy-glutamine)-6-(3-hydroxyproline)echinocandin B] ({Tetradecanoyl(10R,12S-Me2)}-[Orn(4R-OH,5R-OH)]T[Hyp][hTyr(3S-OH,4S-OH)][Gln(3R-OH)][Pro(3S-OH)]; lactam 1-C), the “Minimum Fungicidal Concentration” value (Candida parapsilosis) is reported as 8.0 µg/mL, the “Minimum Fungicidal Concentration” value (Candida albicans; Candida albicans MY 1208, 35° C. 24 hours) is reported as 0.5 µg/mL and the “Minimum Fungicidal Concentration” value (Candida albicans; Candida albicans MY 1783, 35° C. 24 hours) is reported as 0.5 µg/mL.
